Test results reported in ChEMBL document CHEMBL1157764, “Conserved high activity binding peptides are involved in adhesion of two detergent-resistant membrane-associated merozoite proteins to red blood cells during invasion” (J Med Chem, 2010).
Activity calls are given as the source filed them. The rule behind the calls is not given here.

Experiments:
Plasmodium falciparum [1] = experiment: Antiplasmodial activity against Plasmodium falciparum FCB2 assessed as inhibition of merozoite invasion of human RBCs at 100 uM after 18 hrs using hydroethidine staining by flow cytometry; format: functional; details: FCB2, 18 h
Homo sapiens [2] = organism: Homo sapiens; experiment: Binding affinity of radio labeled compound to 170 kDa RBC membrane receptor in human RBCs cross-linked with bis-(sulfosuccinimidyl)suberate by autoradiography using SDS-PAGE
Homo sapiens [3] = organism: Homo sapiens; experiment: Binding affinity to RBC membrane receptor in 150 uU/mL neuraminidase pretreated human RBCs relative to untreated RBCs
Homo sapiens [4] = organism: Homo sapiens; experiment: Binding affinity of radio labeled compound to 68 kDa RBC membrane receptor in human RBCs cross-linked with bis-(sulfosuccinimidyl)suberate by autoradiography using SDS-PAGE
[5] = Binding affinity to RBC membrane receptor in human RBCs assessed as dissociation constant by gamma counter
Plasmodium falciparum [6] = experiment: Antiplasmodial activity against Plasmodium falciparum FCB2 assessed as inhibition of merozoite invasion of human RBCs at 200 uM after 18 hrs using hydroethidine staining by flow cytometry; format: functional; details: FCB2, 18 h
Homo sapiens [7] = organism: Homo sapiens; experiment: Binding affinity to RBC membrane receptor in human RBCs assessed as specific binding activity measured as ratio of specifically bound peptide/added peptide by gamma counter
Homo sapiens [8] = organism: Homo sapiens; experiment: Binding affinity to RBC membrane receptor in 1 mg/mL chymotrypsin pretreated human RBCs relative to untreated RBCs
Homo sapiens [9] = organism: Homo sapiens; experiment: Binding affinity of radio labeled compound to 47 kDa RBC membrane receptor in human RBCs cross-linked with bis-(sulfosuccinimidyl)suberate by autoradiography using SDS-PAGE
Homo sapiens [10] = organism: Homo sapiens; experiment: Binding affinity to RBC membrane receptor in 1 mg/mL trypsin pretreated human RBCs relative to untreated RBCs
Homo sapiens [11] = organism: Homo sapiens; experiment: Binding affinity of radio labeled compound to 78 kDa RBC membrane receptor in human RBCs cross-linked with bis-(sulfosuccinimidyl)suberate by autoradiography using SDS-PAGE
Homo sapiens [12] = organism: Homo sapiens; experiment: Binding affinity of radio labeled compound to 85 kDa RBC membrane receptor in human RBCs cross-linked with bis-(sulfosuccinimidyl)suberate by autoradiography using SDS-PAGE
Plasmodium falciparum [13] = experiment: Antiplasmodial activity against Plasmodium falciparum FCB2 assessed as inhibition of merozoite invasion of human RBCs at 1.85 mg/mL after 18 hrs using hydroethidine staining by flow cytometry; format: functional; parameters: scale not given: the % may be the effect or the level left
Plasmodium falciparum [14] = experiment: Antiplasmodial activity against Plasmodium falciparum FCB2 assessed as inhibition of merozoite invasion of human RBCs at 1.9 mg/mL after 18 hrs using hydroethidine staining by flow cytometry; format: functional; parameters: scale not given: the % may be the effect or the level left

Compound | inhibition at 100 µM (Plasmodium falciparum [1]) [%] | Activity (Homo sapiens [2]) | Activity (Homo sapiens [3]) [%] | Activity (Homo sapiens [4]) | Kd [5] [nM] | inhibition at 200 µM (Plasmodium falciparum [6]) [%] | Activity (Homo sapiens [7]) [%] | Activity (Homo sapiens [8]) [%] | Activity (Homo sapiens [9]) | Activity (Homo sapiens [10]) [%] | Activity (Homo sapiens [11]) | Activity (Homo sapiens [12]) | Activity (Plasmodium falciparum [13]) [%] | Activity (Plasmodium falciparum [14]) [%]
CC[C@H](C)[C@H](NC(=O)[C@H](Cc1cnc[nH]1)NC(=O)[C@H](CC(N)=O)NC(=O)[C@H](CCCNC(=N)N)NC(=O)[C@@H](NC(=O)[C@@H](N)Cc1ccc(O)cc1)[C@@H](C)CC)C(=O)N[C@@H](CC(=O)O)C(=O)N[C@@H](CC(C)C)C(=O)N[C@@H](CC(=O)O)C(=O)N[C@@H](Cc1ccccc1)C(=O)N1CCC[C@H]1C(=O)N[C@@H](Cc1ccccc1)C(=O)N[C@@H](CC(=O)O)C(=O)N[C@H](C(=O)N[C@@H](CC(=O)O)C(=O)N[C@H](C(=O)N[C@H](C(=O)N[C@@H](CCCCN)C(=O)N[C@@H](CC(C)C)C(=O)N[C@@H](Cc1ccc(O)cc1)C(=O)O)C(C)C)[C@H](C)O)[C@H](C)O | 76 | Active | 120 | Active | 800 | -3 | > 2 | 90 | Active | 29 | Active | Active | – | –
CCN(CC)CCCC(C)Nc1ccnc2cc(Cl)ccc12 (stereo unspecified) [CHLOROQUINE] | – | – | – | – | – | – | – | – | – | – | – | – | 68 | –
O=C(O)CN(CCOCCOCCN(CC(=O)O)CC(=O)O)CC(=O)O [EGTAZIC ACID] | – | – | – | – | – | – | – | – | – | – | – | – | – | 81
H-NYRRRKRITELRKILVEKLR-OH | 47 | – | 68 | – | 1700 | 15 | > 2 | 7 | – | 43 | Active | Active | – | –
H-RLKENKDYDVVSSIIQHLDN-OH | 42 | – | 55 | – | 730 | 7 | > 2 | 94 | – | 18 | Active | Active | – | –
H-YFFEYELRKKTQSFRNKNSI-OH | 40 | – | 17 | – | 900 | 10 | > 2 | 31 | – | 83 | Active | Active | – | –
